Patent US20190358181A1, “METHODS FOR AUTISM SPECTRUM DISORDER PHARMACOTHERAPY” (priority 2017, published 2019)

Test system: 610 metabolites from 63 biochemical pathways
Experiment: Targeted broad-spectrum plasma metabolomic analysis (LC-MS/MS), paired pre-infusion vs post-infusion (2-days and 6-weeks)
Assay type: in vivo, human
Conditions: for Linear Ratio / VIP Score / Z Abs / Z Score: plasma
Procedure: Targeted, broad-spectrum, plasma metabolomic analysis of 610 metabolites from 63 biochemical pathways was performed by high performance liquid chromatography and tandem mass spectrometry (LC-MS/MS) on the samples collected from patients in Example 1. Venous blood was collected between the hours of 8 am and 5 pm, at least 3 hours after the last meal, into lithium-heparin vacutainer tubes (BD #367884). Plasma was separated by centrifugation at 900 g×10 minutes at room temperature within one hour of collection. The resulting fresh lithium-heparin plasma was transferred to labeled 1.2 ml or 2.0 ml externally threaded cryotubes with a minimum headspace air gap for storage at −80° C. for analysis. Samples were analyzed on an AB SCIEX QTRAP 5500 triple quadrupole mass spectrometer equipped with a Turbo V electrospray ionization (ESI) source, Shimadzu LC-20A UHPLC system, and a PAL CTC autosampler. Typically, 90 μl of plasma was thawed on ice and transferred to a 1.7 ml Eppendorf tube. Five (5.0) μl of a cocktail containing 25-35 commercial stable isotope internal standards, and 5.0 μl of 57 stable isotope internal standards that were custom-synthesized in E. coli NCM3722, Caenorhabditis elegans N2, and Komagataella phaffii (ATCC 76273; formerly known as Pichia pastoris) by metabolic labeling with 13C-glucose and 13C-bicarbonate, were added, mixed, and incubated for 10 min at 20° C. to permit small molecules and vitamins in the internal standards to associate with plasma binding proteins. Macromolecules (protein, DNA, RNA, glycans, etc.) were precipitated by extraction with 4 volumes (400 μl) of cold (−20° C.), acetonitrile:methanol (50:50) (LCMS grade, Cat #LC015-2.5 and GC230-4, Burdick & Jackson, Honeywell), vortexed vigorously, and incubated on crushed ice for 10 min, then removed by centrifugation at 16,000 g×10 min at 4° C. The supernatants containing the extracted metabolites and internal standards in the resulting 40:40:20 solvent mix of acetonitrile:methanol:water were transferred to labeled cryotubes and stored at −80° C. for LCMS/MS analysis.
LC-MS/MS analysis was performed by scheduled multiple reaction monitoring (sMRM) under Analyst v1.6.2 software control in both negative and positive mode with rapid polarity switching (50 ms). Nitrogen was used for curtain gas (set to 30), collision gas (set to high), ion source gas 1 and 2 (set to 35). The source temperature was 500° C. Spray voltage was set to −4500 V in negative mode and 5500 V in positive mode. The values for Q1 and Q3 mass-to-charge ratios (m/z), declustering potential (DP), entrance potential (EP), collision energy (CE), and collision cell exit potential (CXP) were determined and optimized for each MRM for each metabolite. Ten microliters of extract was injected by PAL CTC autosampler via a 10 μl stainless steel loop into a 250 mm×2.0 mm, 4 μm polymer based NH2 HPLC column (Asahipak NH2P-40 2E, Showa Denko America, Inc., NY) held at 25° C. for chromatographic separation. The mobile phase was solvent A: 95% water with 20 mM (NH4)2CO3 (Sigma, Fluka Cat #74415-250G-F), 5% acetonitrile, and 38 mM NH4OH (Sigma, Fluka Cat #17837-100ML), final pH 9.75; solvent B: 100% acetonitrile. Separation was achieved using the following gradient: 0-3.5 min: 95% B, 3.6-8 min: 85% B, 8.1-13 min: 75% B, 13.5-35 min: 0% B, 36-46 min: 95% B, 46.1 min: end. The flow rate was 200 μl/min. Pump pressures ranged from 920-2600 psi over the course of the gradient. All the samples were kept at 4° C. during analysis. The chromatographic peaks were identified using MultiQuant (v3.0, Sciex), confirmed by manual inspection, and the peak areas integrated. […]

[1] = Branch Chain Amino Acid Metabolism, 2-days
[2] = Branch Chain Amino Acid Metabolism, 6-weeks
[3] = Chenodeoxyglycocholic acid, 6-weeks
[4] = Cholesterol, Cortisol, Non-Gonadal Steroid Metabolism, 6-weeks
[5] = Cholesterol, Cortisol, Non-Gonadal Steroid, 2-days
[6] = Cyclic adenosine monophosphate, 6-weeks
[7] = Deoxy guanosine diphosphate, 6-weeks
[8] = Eicosanoid and Resolvin Metabolism, 2-days
[9] = Endocannabinoid Metabolism, 2-days
[10] = Fatty Acid Oxidation and Synthesis, 2-days
[11] = Fatty Acid Oxidation and Synthesis, 6-weeks

Cc1ccc(C(=O)Nc2ccc(S(=O)(=O)O)c3cc(S(=O)(=O)O)cc(S(=O)(=O)O)c23)cc1NC(=O)c1cccc(NC(=O)Nc2cccc(C(=O)Nc3cc(C(=O)Nc4ccc(S(=O)(=O)O)c5cc(S(=O)(=O)O)cc(S(=O)(=O)O)c45)ccc3C)c2)c1 [Suramin, suramin]
Fold Enrichment (Obs/Exp) [1]: 2.4
Fraction of Impact (VIP Score) Explained (% of 119.7) [1]: 6%
Impact (Sum VIP Score) [1]: 7.3
Increased [1]: 4
Observed Hits in the Top 61 Metabolites [1]: 4
Decreased [2]: 0
Fold Enrichment (Obs/Exp) [2]: 3.0
Fraction of Impact (VIP Score) Explained (% of 94.6) [2]: 8%
Impact (Sum VIP Score) [2]: 7.4
Increased [2]: 4
Observed Hits in the Top 48 Metabolites [2]: 4
Decreased (Cardiolipin Metabolism, 2-days): 0
Fold Enrichment (Obs/Exp) (Cardiolipin Metabolism, 2-days): 2.0
Fraction of Impact (VIP Score) Explained (% of 119.7) (Cardiolipin Metabolism, 2-days): 3%
Impact (Sum VIP Score) (Cardiolipin Metabolism, 2-days): 3.1
Increased (Cardiolipin Metabolism, 2-days): 2
Observed Hits in the Top 61 Metabolites (Cardiolipin Metabolism, 2-days): 2
Decreased (Ceramide Metabolism, 2-days): 0
Fold Enrichment (Obs/Exp) (Ceramide Metabolism, 2-days): 0.2
Fraction of Impact (VIP Score) Explained (% of 119.7) (Ceramide Metabolism, 2-days): 1%
Impact (Sum VIP Score) (Ceramide Metabolism, 2-days): 1.5
Increased (Ceramide Metabolism, 2-days): 1
Observed Hits in the Top 61 Metabolites (Ceramide Metabolism, 2-days): 1
Linear Ratio (Chenodeoxycholic acid, 6-weeks): 2.080
VIP Score (Chenodeoxycholic acid, 6-weeks): 1.670
Z Abs (Chenodeoxycholic acid, 6-weeks): 1.575
Z Score (Chenodeoxycholic acid, 6-weeks): 1.575
Linear Ratio [3]: 2.858
VIP Score [3]: 2.052
Z Abs [3]: 1.650
Z Score [3]: 1.650
Decreased [4]: 0
Fold Enrichment (Obs/Exp) [4]: 1.1
Fraction of Impact (VIP Score) Explained (% of 94.6) [4]: 4%
Impact (Sum VIP Score) [4]: 3.5
Increased [4]: 2
Observed Hits in the Top 48 Metabolites [4]: 2
Decreased [5]: 0
Fold Enrichment (Obs/Exp) [5]: 0.4
Fraction of Impact (VIP Score) Explained (% of 119.7) [5]: 2%
Impact (Sum VIP Score) [5]: 1.8
Increased [5]: 1
Observed Hits in the Top 61 Metabolites [5]: 1
Linear Ratio (Cinnamoylglycine, 6-weeks): 1.190
VIP Score (Cinnamoylglycine, 6-weeks): 1.790
Z Abs (Cinnamoylglycine, 6-weeks): 2.218
Z Score (Cinnamoylglycine, 6-weeks): 2.218
Linear Ratio (Citric acid, 6-weeks): 1.363
VIP Score (Citric acid, 6-weeks): 2.410
Z Abs (Citric acid, 6-weeks): 1.772
Z Score (Citric acid, 6-weeks): 1.772
Linear Ratio [6]: 0.701
VIP Score [6]: 1.962
Z Abs [6]: 1.544
Z Score [6]: −1.544
Linear Ratio (Cysteamine, 6-weeks): 1.157
VIP Score (Cysteamine, 6-weeks): 2.060
Z Abs (Cysteamine, 6-weeks): 2.007
Z Score (Cysteamine, 6-weeks): 2.007
Linear Ratio (Cytosine, 6-weeks): 1.932
VIP Score (Cytosine, 6-weeks): 2.442
Z Abs (Cytosine, 6-weeks): 2.582
Z Score (Cytosine, 6-weeks): 2.582
Linear Ratio (Decanoylcarnitine, 6-weeks): 0.644
VIP Score (Decanoylcarnitine, 6-weeks): 1.617
Z Abs (Decanoylcarnitine, 6-weeks): 1.157
Z Score (Decanoylcarnitine, 6-weeks): −1.157
Linear Ratio [7]: 0.864
VIP Score [7]: 1.915
Z Abs [7]: 1.583
Z Score [7]: −1.583
Decreased [8]: 4
Fold Enrichment (Obs/Exp) [8]: 2.2
Fraction of Impact (VIP Score) Explained (% of 119.7) [8]: 6%
Impact (Sum VIP Score) [8]: 7.1
Increased [8]: 0
Observed Hits in the Top 61 Metabolites [8]: 4
Decreased [9]: 1
Fold Enrichment (Obs/Exp) [9]: 1.8
Fraction of Impact (VIP Score) Explained (% of 119.7) [9]: 1%
Impact (Sum VIP Score) [9]: 1.7
Increased [9]: 0
Observed Hits in the Top 61 Metabolites [9]: 1
Decreased [10]: 1
Fold Enrichment (Obs/Exp) [10]: 0.2
Fraction of Impact (VIP Score) Explained (% of 119.7) [10]: 2%
Impact (Sum VIP Score) [10]: 1.8
Increased [10]: 0
Observed Hits in the Top 61 Metabolites [10]: 1
Decreased [11]: 3
Fold Enrichment (Obs/Exp) [11]: 0.7
Fraction of Impact (VIP Score) Explained (% of 94.6) [11]: 5%
Impact (Sum VIP Score) [11]: 5.0
